Assay results: patent EP4467141A1, “PYRAZOLO-QUINOLINES AS SELECTIVE INHIBITORS OF GENOTOXIC STRESS-INDUCED IKK/NF- KB PATHWAYS FOR CANCER THERAPY” (Max-Delbrück-Centrum für Molekulare Medizin in der …, priority 2023, dated 2024)

Tested on: U2-OS cells
Assay: Western blot of apoptosis and DNA damage markers (cleaved caspase-3, PARP1 cleavage, p53, γH2AX) in U2-OS cells
Format: cell-based
Settings: for cleaved caspase-3, etoposide co-treatment: 10 µM plus etoposide 50 µM; for cleaved caspase-3, etoposide co-treatment / cleaved caspase-3, compound alone: 24 hours; for cleavage of PARP1, as apoptotic marker / cleaved caspase-3, compound alone: 10 µM; for cleavage of PARP1, as apoptotic marker: 8 hours after 10 Gy irradiation
Method: Fig.4: MW01 and MW05 reduce cell viability and increase p53-mediated apoptosis upon etoposide co-treatment. (A) Representative light microscopy images of U2-OS cells following treatment with DMSO, MW01 (10 µM), MW05 (10 µM), or etoposide (50 µM), or co-treatment with MW01 (10 µM) and etoposide (50 µM), or MW05 (10 µM) and etoposide (50 µM) at 24 (left) and 48 hours (right). (B) Quantification of cell viability using CellTiter-Fluor Cell Viability Assay at 6, 24, and 48 hours. Treatment with 0.1% SDS 30 minutes prior to assay was used as positive cell death control. (ns: not significant; *, **, ***: p<0.05, p<0.01, p<0.001). (C) U2-OS cells were treated with DMSO, MW01 (10 µM), MW 05 (10 µM), or etoposide (50 µM), or co-treated with MW01 (10 µM) and etoposide (50 µM), or MW05 (10 µM) and etoposide (50 µM), as indicated. After 24 hours, whole cell lysates were prepared and analyzed by Western blotting for p65 phosphorylation (S536), caspase-3 and cleaved caspase-3 (left panel) and for p53 and γH2AX) (right panel). Vinculin was used as loading control.
Fig.7: (A) Immunoprecipitation of IKKγ from HEK293 lysates pre-treated for 1 hour with DMSO, MW01 or MW05, then irradiated (IR, 20 Gy) and lysed. (B) Western blot analysis of MEF cells pre-treated with DMSO, MW01, MW05 or ATM inhibitor KU55933 and irradiated (IR, 20 Gy). Lysates were subjected to SDS-PAGE/WB. The specific IKKγ S85 band (lower band) was identified by induction following irradiation and by sensitivity to ATMi and λ- phosphatase (λ-PP) treatment. (C) Western blot analysis of U2os cells pre-treated for 1 hour with the indicated substances, irradiated (IR, 20 Gy) and whole cell lysates probed for poly(ADP)-ribose. (D) Western blot analysis of cytoplasmic and nuclear fractions from U2-OS cells for p-ATM (S 1981), after 1 hour pre-treatment with DMSO, MW01 (10 µM), or MW05 (10 µM) and 45 min following irradiation (IR, 20 Gy). PARP1 and LDHA are used as loading controls for nuclear and cytoplasmic fractions respectively. (E) mRNA expression analysis of CLK4 (top), 48 hours after transfection with siNC or siCLK4. mRNA expression analysis of NFKBIA (bottom), 48 hours after transfection with siNC or siCLK4. Values normalized to unstimulated siNC expressing cells. Statistical comparison was made between experimental conditions and paired siNC control. ns: not significant; **, ***, ****: p<0.01, p<0.001, p<0.0001. (F) Western blot analysis of p65 phosphorylation (S536) and CLK4 expression after transfection with siNC or siCLK4 in unstimulated, after 90 min irradiation (IR, 20 Gy), or after 20 min TNFα (10 ng/mL) conditions in U2-OS cells. Vinculin is used as loading control. Note that CLK4 and p-p65 were blotted on separate membranes, with respective vinculin blots underneath. (G) MW01 and MW05 are inhibitors of DNA damage-induced p65 nuclear translocation. U2-OS cells were pre-treated with DMSO, MW01 or MW05. Etoposide was added and after 2 hours cells were fixed and nuclei stained with DAPI. P65 and γH2AX were stained by immunofluorescence and images taken at a confocal Zeiss 710 LSM microscope with a 40x oil objective. (H) Western blot analysis of U2-OS cells 8 hours after 10 Gy irradiation following 1 hour pre-treatment with 10 µM DMSO, MW01, or MW05. Tubulin was used loading control. (I) mRNA expression analysis of BIRC3 in U2-OS cells 8 hours after 10 Gy irradiation following 1 hour pre-treatment with 10 µM DMSO, MW01, or MW05 and. Values were normalized to DMSO-treated unstimulated cells.
Cells were collected by scraping and lysed in Baeuerle lysis buffer supplemented with Protease (Thermo Fisher Scientific, 78429) and Phosphatase (Thermo Fisher Scientific, 78420) inhibitors after the appropriate treatment and time point. […]

| SMILES | cleaved caspase-3, etoposide co-treatment | cleavage of PARP1, as apoptotic marker | cleaved caspase-3, compound alone |
| --- | --- | --- | --- |
| COc1ccc2c(c1OC)c(=O)n1c3ccc(O)cc3c3ccnc2c31 [MW01, 5-Hydroxy-10,11-dimethoxy-9H-benzo[c]indolo[3,2,1-ij][1,5]naphthyridin-9-one] | increased | potentiated | did not observe an increase |
| COc1ccc2cc3c(N)nn(C(=O)c4cccc(N(C)C)c4)c3nc2c1 [MW05, (3-Amino-7-methoxypyrazolo[3,4-b]quinolin-1-yl)-[3-(dimethylamino)phenyl]methanone] | increased | potentiated | did not observe an increase |
